Reference: US9212182B2, “Bicyclic sulfonamide compounds as sodium channel inhibitors” (AMGEN INC., priority 2013, dated 2015)

biological target: Nav 1.7 (Homo sapiens (Human), UniProt Q15858); assay: in-vitro Nav 1.7 PX (IC50); type: cell-based; conditions: not given
Sequence (Q15858 whole entry): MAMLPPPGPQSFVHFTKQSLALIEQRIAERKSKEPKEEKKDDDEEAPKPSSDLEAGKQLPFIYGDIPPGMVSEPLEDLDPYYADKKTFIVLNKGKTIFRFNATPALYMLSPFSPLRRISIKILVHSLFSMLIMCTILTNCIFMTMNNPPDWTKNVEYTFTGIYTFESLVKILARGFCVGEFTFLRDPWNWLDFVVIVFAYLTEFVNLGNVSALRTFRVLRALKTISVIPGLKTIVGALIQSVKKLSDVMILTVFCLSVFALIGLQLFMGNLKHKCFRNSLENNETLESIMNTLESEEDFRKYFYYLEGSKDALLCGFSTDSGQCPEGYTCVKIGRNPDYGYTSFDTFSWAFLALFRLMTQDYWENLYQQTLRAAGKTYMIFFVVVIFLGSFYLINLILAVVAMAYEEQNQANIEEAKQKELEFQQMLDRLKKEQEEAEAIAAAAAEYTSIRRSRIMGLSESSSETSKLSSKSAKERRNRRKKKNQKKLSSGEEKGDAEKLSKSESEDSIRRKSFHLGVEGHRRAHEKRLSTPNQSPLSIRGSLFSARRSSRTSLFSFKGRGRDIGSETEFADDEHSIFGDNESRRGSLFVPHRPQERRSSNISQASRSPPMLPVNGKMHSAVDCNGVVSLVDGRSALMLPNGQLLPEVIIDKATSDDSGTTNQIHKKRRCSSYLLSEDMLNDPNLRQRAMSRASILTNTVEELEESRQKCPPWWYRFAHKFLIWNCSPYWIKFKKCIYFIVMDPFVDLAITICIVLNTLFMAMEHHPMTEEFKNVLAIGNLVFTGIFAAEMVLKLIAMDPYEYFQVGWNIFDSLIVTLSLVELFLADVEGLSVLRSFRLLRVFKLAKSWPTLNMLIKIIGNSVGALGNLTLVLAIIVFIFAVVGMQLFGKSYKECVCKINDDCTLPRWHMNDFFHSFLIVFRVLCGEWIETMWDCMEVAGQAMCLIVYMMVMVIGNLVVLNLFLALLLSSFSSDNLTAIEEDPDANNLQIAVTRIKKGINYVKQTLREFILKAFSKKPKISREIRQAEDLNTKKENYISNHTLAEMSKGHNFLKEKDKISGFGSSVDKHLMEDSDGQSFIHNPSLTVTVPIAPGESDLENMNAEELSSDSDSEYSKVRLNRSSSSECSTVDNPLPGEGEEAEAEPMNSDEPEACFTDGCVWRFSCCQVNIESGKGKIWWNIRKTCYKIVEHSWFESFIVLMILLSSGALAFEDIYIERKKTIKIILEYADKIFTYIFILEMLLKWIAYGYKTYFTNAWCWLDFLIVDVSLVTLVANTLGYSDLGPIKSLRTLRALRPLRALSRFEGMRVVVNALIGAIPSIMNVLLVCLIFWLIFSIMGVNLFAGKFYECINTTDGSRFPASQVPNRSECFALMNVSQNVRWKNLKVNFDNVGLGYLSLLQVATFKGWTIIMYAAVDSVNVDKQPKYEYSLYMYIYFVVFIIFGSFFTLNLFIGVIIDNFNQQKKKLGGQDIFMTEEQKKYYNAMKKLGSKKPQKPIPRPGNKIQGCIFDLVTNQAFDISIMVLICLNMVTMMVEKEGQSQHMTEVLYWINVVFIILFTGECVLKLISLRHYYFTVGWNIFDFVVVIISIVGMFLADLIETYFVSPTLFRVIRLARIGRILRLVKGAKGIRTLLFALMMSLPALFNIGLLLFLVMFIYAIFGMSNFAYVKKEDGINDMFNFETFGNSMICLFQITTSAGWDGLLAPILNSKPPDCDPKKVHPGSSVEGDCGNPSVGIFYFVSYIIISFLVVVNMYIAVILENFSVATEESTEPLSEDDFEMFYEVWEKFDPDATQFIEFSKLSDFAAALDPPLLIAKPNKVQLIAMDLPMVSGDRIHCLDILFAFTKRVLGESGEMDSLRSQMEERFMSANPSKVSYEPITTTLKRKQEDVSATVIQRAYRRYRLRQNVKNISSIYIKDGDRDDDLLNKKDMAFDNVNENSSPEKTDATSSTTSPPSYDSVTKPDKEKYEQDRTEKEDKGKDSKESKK

IC50 [µM]	Structure (SMILES)
0.035	COc1cc(C#CC2(F)CCCC2)c(F)cc1-n1c(=O)ccc2cc(S(=O)(=O)Nc3ccon3)ccc21 (atropisomer, axis not shown; (P)) [Example 1153, (P)-1-(5-fluoro-4-((1-fluorocyclopentyl)ethynyl)-2-methoxyphenyl)-N-3-isoxazolyl-2-oxo-1,2-dihydro-6-quinolinesulfonamide]
3.1	COc1nc(Oc2ccc(F)cc2)c(Cl)cc1-n1c(=O)ccc2cc(S(=O)(=O)Nc3ccon3)ccc21 [Example 1220, 1-(5-chloro-6-(4-fluorophenoxy)-2-methoxy-3-pyridinyl)-N-3-isoxazolyl-2-oxo-1,2-dihydro-6-quinolinesulfonamide]
0.309	COc1cc(-c2cc(F)cc(Cl)c2)c(C)cc1-n1c(=O)ccc2cc(S(=O)(=O)Nc3ccon3)ccc21 (atropisomer, axis not shown; (M)) [Example 418, (M)-1-(3′-chloro-5′-fluoro-5-methoxy-2-methyl-4-biphenylyl)-N-3-isoxazolyl-2-oxo-1,2-dihydro-6-quinolinesulfonamide]
0.258	COc1cc(-c2cccc(OC(C)C)c2)ccc1-n1c(=O)ccc2cc(S(=O)(=O)Nc3cccc(F)n3)ccc21 (atropisomer, axis not shown; (P)) [Example 1208, (P)-N-(6-fluoro-2-pyridinyl)-1-(3-methoxy-3′-(1-methylethoxy)-4-biphenylyl)-2-oxo-1,2-dihydro-6-quinolinesulfonamide]

Structure (SMILES)	IC50 [µM]
COc1cc(-c2ccc(Cl)c(C)c2)c(F)cc1-n1c(=O)c(OC)cc2cc(S(=O)(=O)Nc3ccon3)ccc21 (atropisomer, axis not shown; (M)) [Example 413, (M)-1-(4′-chloro-2-fluoro-5-methoxy-3′-methyl-[1,1′-biphenyl]-4-yl)-N-(isoxazol-3-yl)-3-methoxy-2-oxo-1,2-dihydroquinoline-6-sulfonamide]	5.89

same assay, conditions: in-vitro Nav 1.7 PX data

IC50 [µM]	Structure (SMILES)
0.071	COc1cc(F)ccc1-c1cc(OC)c(-n2c(=O)ccc3cc(S(=O)(=O)Nc4ccon4)ccc32)cc1F [Example 741, 1-(2,4′-difluoro-2′,5-dimethoxy-4-biphenylyl)-N-3-isoxazolyl-2-oxo-1,2-dihydro-6-quinolinesulfonamide]
0.024	COc1cc(-c2cccc(C)c2)c(F)cc1-n1c(=O)ccc2cc(S(=O)(=O)Nc3ncco3)ccc21 [Example 1106, 1-(2-fluoro-5-methoxy-3′-methyl-4-biphenylyl)-N-1,3-oxazol-2-yl-2-oxo-1,2-dihydro-6-quinolinesulfonamide]
0.054	COc1cc(-c2ccc(Cl)cc2)ccc1-n1c(=O)ccc2cc(S(=O)(=O)Nc3cc(C)ncn3)ccc21 [Example 767, 1-(4′-chloro-3-methoxy-4-biphenylyl)-N-(6-methyl-4-pyrimidinyl)-2-oxo-1,2-dihydro-6-quinolinesulfonamide]
0.051	COc1cc(-c2ccc(Cl)c(C#N)c2)c(F)cc1-n1c(=O)ccc2cc(S(=O)(=O)Nc3ccnc(C)n3)ccc21 [Example 892, 1-(4′-chloro-3′-cyano-2-fluoro-5-methoxy-4-biphenylyl)-N-(2-methyl-4-pyrimidinyl)-2-oxo-1,2-dihydro-6-quinolinesulfonamide]
0.022	COc1cc(-c2cccc(C(F)(F)F)c2)ccc1-n1c(=O)ccc2cc(S(=O)(=O)Nc3ncon3)ccc21 [Example 919, 1-(3-methoxy-3′-(trifluoromethyl)-4-biphenylyl)-N-1,2,4-oxadiazol-3-yl-2-oxo-1,2-dihydro-6-quinolinesulfonamide]
0.052	COc1cc(-c2cccc(OC)c2C)ccc1-n1c(=O)ccc2cc(S(=O)(=O)Nc3ccon3)ccc21 [Example 787, 1-(3,3′-dimethoxy-2′-methyl-4-biphenylyl)-N-3-isoxazolyl-2-oxo-1,2-dihydro-6-quinolinesulfonamide]
0.08	COc1cc(C#CC(C)(C)C)c(F)cc1-n1c(=O)ccc2cc(S(=O)(=O)Nc3ccon3)ccc21 [Example 1122, 1-(4-(3,3-dimethyl-1-butyn-1-yl)-5-fluoro-2-methoxyphenyl)-N-3-isoxazolyl-2-oxo-1,2-dihydro-6-quinolinesulfonamide]
0.598	COc1ccc(-c2cc(OC)c(-n3c(=O)ccc4cc(S(=O)(=O)Nc5ccon5)ccc43)cc2F)cn1 [Example 729, 1-(5-fluoro-2-methoxy-4-(6-methoxy-3-pyridinyl)phenyl)-N-3-isoxazolyl-2-oxo-1,2-dihydro-6-quinolinesulfonamide]
0.016	COc1ccc(-c2cc(C)cc(Cl)c2)cc1-n1c(=O)ccc2cc(S(=O)(=O)Nc3ccon3)ccc21 [Example 867, 1-(3′-chloro-4-methoxy-5′-methyl-3-biphenylyl)-N-3-isoxazolyl-2-oxo-1,2-dihydro-6-quinolinesulfonamide]
0.011	COc1cc(-c2cc(C)cc(C)c2)ccc1-n1c(=O)ccc2cc(S(=O)(=O)Nc3ccon3)ccc21 [Example 1016, N-3-isoxazolyl-1-(3-methoxy-3′,5′-dimethyl-4-biphenylyl)-2-oxo-1,2-dihydro-6-quinolinesulfonamide]
0.062	COc1cc(-c2cc(F)c(F)cc2F)ccc1-n1c(=O)ccc2cc(S(=O)(=O)Nc3ccon3)ccc21 [Example 1024, N-3-isoxazolyl-2-oxo-1-(2′,4′,5′-trifluoro-3-methoxy-4-biphenylyl)-1,2-dihydro-6-quinolinesulfonamide]
0.01	COc1cc(C)cc(-c2cc(OC)c(-n3c(=O)ccc4cc(S(=O)(=O)Nc5ccon5)ccc43)cc2F)c1 [Example 708, 1-(2-fluoro-3′,5-dimethoxy-5′-methyl-4-biphenylyl)-N-3-isoxazolyl-2-oxo-1,2-dihydro-6-quinolinesulfonamide]
0.007	COc1cc(Cl)cc(-c2cc(OC)cc(-c3cc(OC)c(-n4c(=O)ccc5cc(S(=O)(=O)Nc6ccon6)ccc54)cc3F)c2)c1 [Example 723, 1-(3″-chloro-2-fluoro-5,5′,5″-trimethoxy-1,1′:3′,1″-terphenyl-4-yl)-N-3-isoxazolyl-2-oxo-1,2-dihydro-6-quinolinesulfonamide]
0.032	COc1cc(-c2cccc(C)c2)c(F)cc1-n1c(=O)ccc2cc(S(=O)(=O)Nc3ncccn3)ccc21 [Example 1107, 1-(2-fluoro-5-methoxy-3′-methyl-4-biphenylyl)-2-oxo-N-2-pyrimidinyl-1,2-dihydro-6-quinolinesulfonamide]
0.709	COc1cc(-c2cccc(F)c2)ncc1-n1c(=O)ccc2cc(S(=O)(=O)Nc3ccon3)ccc21 (atropisomer, axis not shown; (P)) [Example 602, (P)-1-(6-(3-fluorophenyl)-4-methoxy-3-pyridinyl)-N-3-isoxazolyl-2-oxo-1,2-dihydro-6-quinolinesulfonamide]
0.081	COc1cc(-c2ccc(C)c(F)c2)c(F)cc1-n1c(=O)ccc2cc(S(=O)(=O)Nc3ncco3)ccc21 [Example 1125, 1-(2,3′-difluoro-5-methoxy-4′-methyl-4-biphenylyl)-N-1,3-oxazol-2-yl-2-oxo-1,2-dihydro-6-quinolinesulfonamide]

Structure (SMILES)	IC50 [µM]
COc1cc(-c2ccc(Cl)cc2)c(F)cc1-n1c(=O)ccc2cc(S(=O)(=O)Nc3ccon3)ccc21 (atropisomer, axis not shown; (P)) [Example 633, (P)-1-(4′-chloro-2-fluoro-5-methoxy-4-biphenylyl)-N-3-isoxazolyl-2-oxo-1,2-dihydro-6-quinolinesulfonamide]	0.007
COc1cc(-c2ccc(Cl)cc2)c(F)cc1-n1c(=O)ccc2cc(S(=O)(=O)Nc3ccon3)ccc21 [634/675, 1-(4′-chloro-2-fluoro-5-methoxy-4-biphenylyl)-N-3-isoxazolyl-2-oxo-1,2-dihydro-6-quinolinesulfonamide]	0.013

same assay, conditions: in-vitro Nav 1.7 PX data (PatchXpress)

IC50 [µM]	Structure (SMILES)
0.064	COc1ccc(F)c(-c2ccc(-n3c(=O)ccc4cc(S(=O)(=O)Nc5ccon5)ccc43)c(OC)c2)c1 [Example 1033, 1-(2′-fluoro-3,5′-dimethoxy-4-biphenylyl)-N-3-isoxazolyl-2-oxo-1,2-dihydro-6-quinolinesulfonamide]

same assay, conditions: in-vitro Nav 1.7 PX data, Table 4

IC50 [µM]	Structure (SMILES)
0.089	COc1cc(-c2cnc(OC)c(Cl)c2)c(F)cc1-n1c(=O)ccc2cc(S(=O)(=O)Nc3ncco3)ccc21 (atropisomer, axis not shown; (P)) [Example 1158, (P)-1-(4-(5-chloro-6-methoxy-3-pyridinyl)-5-fluoro-2-methoxyphenyl)-N-1,3-oxazol-2-yl-2-oxo-1,2-dihydro-6-quinolinesulfonamide]
0.051	COc1cc(-c2cnc(OC)c(Cl)c2)c(F)cc1-n1c(=O)ccc2cc(S(=O)(=O)Nc3cc(C)ncn3)ccc21 (atropisomer, axis not shown; (P)) [Example 1159, (P)-1-(4-(5-chloro-6-methoxy-3-pyridinyl)-5-fluoro-2-methoxyphenyl)-N-(6-methyl-4-pyrimidinyl)-2-oxo-1,2-dihydro-6-quinolinesulfonamide]

same assay, conditions: in-vitro PatchXpress (PX)

IC50 [µM]	Structure (SMILES)
0.009	COc1cc(-c2ccc(F)c(Cl)c2)c(F)cc1-n1c(=O)ccc2cc(S(=O)(=O)Nc3ccon3)ccc21 (atropisomer, axis not shown; (P)) [Example 365, (P)-1-(3′-chloro-2,4′-difluoro-5-methoxy-4-biphenylyl)-N-3-isoxazolyl-2-oxo-1,2-dihydro-6-quinolinesulfonamide]
8.04	COc1cc(-c2cncc(Cl)c2)c(F)cc1-n1c(=O)ccc2cc(S(=O)(=O)Nc3ccon3)ccc21 (atropisomer, axis not shown; (P)) [Example 408, (P)-1-(4-(5-chloro-3-pyridinyl)-5-fluoro-2-methoxyphenyl)-N-3-isoxazolyl-2-oxo-1,2-dihydro-6-quinolinesulfonamide]
1.68	COc1cc(-c2ccc(Cl)c(C#N)c2)c(F)cc1-n1c(=O)ccc2cc(S(=O)(=O)Nc3ccon3)ccc21 (atropisomer, axis not shown; (M)) [Example 509, (M)-1-(4′-chloro-3′-cyano-2-fluoro-5-methoxy-4-biphenylyl)-N-3-isoxazolyl-2-oxo-1,2-dihydro-6-quinolinesulfonamide]
> 10	COc1cc(-c2ccc(C#N)c(Cl)c2)c(F)cc1-n1c(=O)ccc2cc(S(=O)(=O)Nc3ccon3)ccc21 (atropisomer, axis not shown; (M)) [Example 521, (M)-1-(3′-chloro-4′-cyano-2-fluoro-5-methoxy-4-biphenylyl)-N-3-isoxazolyl-2-oxo-1,2-dihydro-6-quinolinesulfonamide]
